According to ChEMBL document CHEMBL6074711, “Design, Synthesis, and Activity Evaluation of C-23-Modified 5-O-Mycaminosyltylonolide Derivatives” (ACS Med Chem Lett, 2024):
Converted amounts (≈) assume the structure as drawn.

Assays:
Assay type in all cases: functional
[1] = tested on: Escherichia coli; test: Induction of resistance development in Escherichia coli ATCC25922 treated daily with continuous passaging measured after 5 passages by absorbance based assay; settings: ATCC25922, 120 h, time 5 day
[2] = tested on: Escherichia coli; test: Induction of resistance development in Escherichia coli ATCC25922 treated daily with continuous passaging measured after 10 passages by absorbance based assay; settings: ATCC25922, 240 h, time 10 day
[3] = tested on: Escherichia coli; test: Induction of resistance development in Escherichia coli ATCC25922 treated daily with continuous passaging measured after 14 passages by absorbance based assay; settings: ATCC25922, 336 h, time 14 day

CS(=O)(=O)c1ccc([C@@H](O)[C@@H](CF)NC(=O)C(Cl)Cl)cc1 [FLORFENICOL]
MIC [1]: 8 µg/mL (≈ 22.3 µM)
MIC [2]: 16 µg/mL (≈ 44.7 µM)
MIC [3]: 32 µg/mL (≈ 89.3 µM)
